Experimental data: ChEMBL document CHEMBL3352660, “Design, synthesis and pharmacological evaluation of novel polycyclic heteroarene ethers as PDE10A inhibitors: part II” (Bioorg Med Chem Lett, 2014)

Experiments:
[1] = molecular target: High affinity 3',5'-cyclic-AMP phosphodiesterase 7A (Homo sapiens) (UniProt Q13946); experiment: Inhibition of human recombinant PDE7A using [3H]-cAMP as substrate at 10 uM after 30 mins by two-step radiometric assay
[2] = molecular target: cGMP-specific 3',5'-cyclic phosphodiesterase (Homo sapiens) (UniProt O76074); experiment: Inhibition of human recombinant PDE5A using […] as substrate at 10 uM after 30 mins by scintillation proximity assay
[3] = Metabolic stability in cynomolgus monkey liver microsomes incubated for 10 mins prior to NADPH addition measured after 60 mins by LC/MS/MS analysis; format: ADME, Macaca fascicularis; conditions: read-out: Stability
[4] = molecular target: cGMP-dependent 3',5'-cyclic phosphodiesterase (Homo sapiens) (UniProt O00408); experiment: Inhibition of human recombinant PDE2A using cAMP as substrate at 10 uM after 30 mins by HTRF method
[5] = molecular target: T1, cAMP and cAMP-inhibited cGMP 3',5'-cyclic phosphodiesterase 10A (Homo sapiens, UniProt Q9Y233); experiment: Inhibition of human recombinant GST-tagged PDE10A using [3H]-cAMP as substrate after 30 mins by scintillation proximity assay
[6] = molecular target: T1, cAMP and cAMP-inhibited cGMP 3',5'-cyclic phosphodiesterase 10A; experiment: Inhibition of human recombinant GST-tagged PDE10A using [3H]-cAMP as substrate at 1 uM after 30 mins by scintillation proximity assay
[7] = molecular target: cGMP-inhibited 3',5'-cyclic phosphodiesterase 3A (Homo sapiens) (UniProt Q14432); experiment: Inhibition of human recombinant PDE3A using cAMP as substrate at 10 uM after 30 mins by HTRF method
[8] = molecular target: 3',5'-cyclic-AMP phosphodiesterase 4D (Homo sapiens) (UniProt Q08499); experiment: Inhibition of human recombinant PDE4D using [3H]-cAMP as substrate at 1 uM after 30 mins by two-step radiometric assay
[9] = Metabolic stability in Wistar rat liver microsomes incubated for 10 mins prior to NADPH addition measured after 60 mins by LC/MS/MS analysis; format: ADME; conditions: read-out: Stability
[10] = molecular target: High affinity 3',5'-cyclic-AMP phosphodiesterase 7A (Homo sapiens) (UniProt Q13946); experiment: Inhibition of human recombinant PDE7A using [3H]-cAMP as substrate at 1 uM after 30 mins by two-step radiometric assay
[11] = molecular target: 3',5'-cyclic-AMP phosphodiesterase 4D (Homo sapiens) (UniProt Q08499); experiment: Inhibition of human recombinant PDE4D using [3H]-cAMP as substrate at 10 uM after 30 mins by two-step radiometric assay
[12] = Metabolic stability in human liver microsomes incubated for 10 mins prior to NADPH addition measured after 60 mins by LC/MS/MS analysis; format: ADME; conditions: read-out: Stability
[13] = molecular target: T2, cAMP and cAMP-inhibited cGMP 3',5'-cyclic phosphodiesterase 10A (Rattus norvegicus, UniProt Q9QYJ6); experiment: Inhibition of rat recombinant GST-tagged PDE10A using [3H]-cAMP as substrate by scintillation proximity assay
T2 sequence (Q9QYJ6 whole entry): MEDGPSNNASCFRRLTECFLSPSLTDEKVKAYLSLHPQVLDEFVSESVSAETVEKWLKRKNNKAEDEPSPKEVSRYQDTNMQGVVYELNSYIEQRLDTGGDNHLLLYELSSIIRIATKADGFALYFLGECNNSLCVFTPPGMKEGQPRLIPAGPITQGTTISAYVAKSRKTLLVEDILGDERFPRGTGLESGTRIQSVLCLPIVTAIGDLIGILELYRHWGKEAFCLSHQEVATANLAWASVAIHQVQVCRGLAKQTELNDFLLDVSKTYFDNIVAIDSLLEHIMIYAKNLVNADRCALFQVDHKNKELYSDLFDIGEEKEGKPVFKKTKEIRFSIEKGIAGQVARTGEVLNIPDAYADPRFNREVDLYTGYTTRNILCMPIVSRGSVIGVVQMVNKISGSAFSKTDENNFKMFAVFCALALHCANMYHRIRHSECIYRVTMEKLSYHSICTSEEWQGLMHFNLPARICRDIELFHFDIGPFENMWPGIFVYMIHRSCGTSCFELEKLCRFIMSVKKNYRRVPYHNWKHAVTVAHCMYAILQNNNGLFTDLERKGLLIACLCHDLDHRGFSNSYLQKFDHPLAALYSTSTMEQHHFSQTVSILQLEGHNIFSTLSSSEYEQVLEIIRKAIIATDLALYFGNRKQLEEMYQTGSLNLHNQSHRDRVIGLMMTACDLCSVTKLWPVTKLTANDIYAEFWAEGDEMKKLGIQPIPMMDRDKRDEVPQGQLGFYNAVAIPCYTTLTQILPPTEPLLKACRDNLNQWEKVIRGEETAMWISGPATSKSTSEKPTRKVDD

[14] = molecular target: Dual 3',5'-cyclic-AMP and -GMP phosphodiesterase 11A (Homo sapiens) (UniProt Q9HCR9); experiment: Inhibition of human recombinant PDE11A using [3H]-cAMP as substrate at 10 uM after 30 mins by two-step radiometric assay
[15] = molecular target: T3, cAMP and cAMP-inhibited cGMP 3',5'-cyclic phosphodiesterase 10A (Mus musculus, UniProt Q8CA95); experiment: Inhibition of mouse recombinant GST-tagged PDE10A using [3H]-cAMP as substrate after 30 mins by scintillation proximity assay
T3 sequence (Q8CA95 whole entry): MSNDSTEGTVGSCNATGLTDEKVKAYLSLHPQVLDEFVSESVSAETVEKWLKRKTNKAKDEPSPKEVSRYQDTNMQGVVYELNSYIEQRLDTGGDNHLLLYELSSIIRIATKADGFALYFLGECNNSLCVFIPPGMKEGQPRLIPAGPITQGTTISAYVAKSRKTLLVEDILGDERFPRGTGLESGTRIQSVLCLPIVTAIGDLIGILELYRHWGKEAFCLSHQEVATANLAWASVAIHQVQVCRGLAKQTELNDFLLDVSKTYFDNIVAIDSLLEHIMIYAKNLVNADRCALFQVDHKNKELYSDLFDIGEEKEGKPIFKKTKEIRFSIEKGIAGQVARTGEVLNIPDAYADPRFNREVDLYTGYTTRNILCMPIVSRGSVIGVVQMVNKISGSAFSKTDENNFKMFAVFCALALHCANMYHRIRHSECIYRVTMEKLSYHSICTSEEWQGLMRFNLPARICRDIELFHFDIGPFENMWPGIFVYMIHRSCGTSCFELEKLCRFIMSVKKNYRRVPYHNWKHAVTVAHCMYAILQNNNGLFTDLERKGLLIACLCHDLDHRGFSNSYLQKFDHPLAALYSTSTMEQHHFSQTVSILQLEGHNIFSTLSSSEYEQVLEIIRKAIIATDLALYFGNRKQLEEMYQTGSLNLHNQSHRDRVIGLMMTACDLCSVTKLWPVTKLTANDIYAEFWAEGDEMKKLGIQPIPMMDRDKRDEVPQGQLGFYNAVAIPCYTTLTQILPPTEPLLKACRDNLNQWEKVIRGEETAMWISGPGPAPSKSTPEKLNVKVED

[16] = molecular target: cGMP-dependent 3',5'-cyclic phosphodiesterase (Homo sapiens) (UniProt O00408); experiment: Inhibition of human recombinant PDE2A using cAMP as substrate at 1 uM after 30 mins by HTRF method
[17] = Metabolic stability in CD1 mouse liver microsomes incubated for 10 mins prior to NADPH addition measured after 60 mins by LC/MS/MS analysis; format: ADME; conditions: read-out: Stability
[18] = molecular target: cGMP-specific 3',5'-cyclic phosphodiesterase (Homo sapiens) (UniProt O76074); experiment: Inhibition of human recombinant PDE5A using […] as substrate at 1 uM after 30 mins by scintillation proximity assay
[19] = Metabolic stability in Beagle dog liver microsomes incubated for 10 mins prior to NADPH addition measured after 60 mins by LC/MS/MS analysis; format: ADME, Canis lupus familiaris; conditions: read-out: Stability
[20] = molecular target: cGMP-inhibited 3',5'-cyclic phosphodiesterase 3A (Homo sapiens) (UniProt Q14432); experiment: Inhibition of human recombinant PDE3A using cAMP as substrate at 1 uM after 30 mins by HTRF method
[21] = molecular target: Dual 3',5'-cyclic-AMP and -GMP phosphodiesterase 11A (Homo sapiens) (UniProt Q9HCR9); experiment: Inhibition of human recombinant PDE11A using [3H]-cAMP as substrate at 1 uM after 30 mins by two-step radiometric assay
[22] = system: Rattus norvegicus; experiment: Antipsychotic activity in Sprague-Dawley rat prepulse inhibition deficit model assessed as reversal of MK-801-induced effect at 1 mg/kg, ip administered 20 mins prior to MK-801 challenge relative to vehicle-treated control; format: functional; set-up: scale not given: the % may be the effect or the level left; conditions: route intraperitoneal
[23] = system: Rattus norvegicus; experiment: Antipsychotic activity in Sprague-Dawley rat […] assessed as reversal of MK-801-induced locomotion at 3 mg/kg, ip administered 2 hrs prior to MK-801 challenge measured every 5 mins for 1 hr starting 15 mins post MK-801 injection relative to vehicle-treated control; format: functional; conditions: route intraperitoneal
[24] = system: Rattus norvegicus; experiment: Antipsychotic activity in Sprague-Dawley rat […] assessed as reversal of MK-801-induced stereotypy at 3 mg/kg, ip administered 2 hrs prior to MK-801 challenge measured every 5 mins for 1 hr starting 15 mins post MK-801 injection relative to vehicle-treated control; format: functional; conditions: route intraperitoneal
[25] = system: Rattus norvegicus; experiment: Antipsychotic activity in Sprague-Dawley rat […] assessed as reversal of MK-801-induced ataxia at 3 mg/kg, ip administered 2 hrs prior to MK-801 challenge measured every 5 mins for 1 hr starting 15 mins post MK-801 injection relative to vehicle-treated control; format: functional; conditions: route intraperitoneal
[26] = system: Rattus norvegicus; experiment: Antipsychotic activity in Sprague-Dawley rat conditioned avoidance response model assessed as avoidance of shock at 3 mg/kg, ip measured after 30 mins relative to vehicle-treated control; format: functional; conditions: route intraperitoneal

Sequence of High affinity 3',5'-cyclic-AMP phosphodiesterase 7A (Homo sapiens) (Q13946 whole entry): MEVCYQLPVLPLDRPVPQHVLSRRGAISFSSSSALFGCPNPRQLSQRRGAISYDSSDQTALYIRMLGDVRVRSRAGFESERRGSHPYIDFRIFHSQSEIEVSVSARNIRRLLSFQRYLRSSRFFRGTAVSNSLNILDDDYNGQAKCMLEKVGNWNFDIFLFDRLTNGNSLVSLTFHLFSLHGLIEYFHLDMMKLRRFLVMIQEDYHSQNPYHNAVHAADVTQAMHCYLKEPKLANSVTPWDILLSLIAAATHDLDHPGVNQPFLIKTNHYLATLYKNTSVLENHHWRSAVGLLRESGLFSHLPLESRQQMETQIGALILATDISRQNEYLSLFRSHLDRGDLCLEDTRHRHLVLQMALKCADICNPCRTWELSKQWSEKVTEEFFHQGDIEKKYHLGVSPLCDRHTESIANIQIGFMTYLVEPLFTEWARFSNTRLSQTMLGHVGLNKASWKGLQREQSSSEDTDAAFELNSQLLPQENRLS
Sequence of 3',5'-cyclic-AMP phosphodiesterase 4D (Homo sapiens) (Q08499 whole entry): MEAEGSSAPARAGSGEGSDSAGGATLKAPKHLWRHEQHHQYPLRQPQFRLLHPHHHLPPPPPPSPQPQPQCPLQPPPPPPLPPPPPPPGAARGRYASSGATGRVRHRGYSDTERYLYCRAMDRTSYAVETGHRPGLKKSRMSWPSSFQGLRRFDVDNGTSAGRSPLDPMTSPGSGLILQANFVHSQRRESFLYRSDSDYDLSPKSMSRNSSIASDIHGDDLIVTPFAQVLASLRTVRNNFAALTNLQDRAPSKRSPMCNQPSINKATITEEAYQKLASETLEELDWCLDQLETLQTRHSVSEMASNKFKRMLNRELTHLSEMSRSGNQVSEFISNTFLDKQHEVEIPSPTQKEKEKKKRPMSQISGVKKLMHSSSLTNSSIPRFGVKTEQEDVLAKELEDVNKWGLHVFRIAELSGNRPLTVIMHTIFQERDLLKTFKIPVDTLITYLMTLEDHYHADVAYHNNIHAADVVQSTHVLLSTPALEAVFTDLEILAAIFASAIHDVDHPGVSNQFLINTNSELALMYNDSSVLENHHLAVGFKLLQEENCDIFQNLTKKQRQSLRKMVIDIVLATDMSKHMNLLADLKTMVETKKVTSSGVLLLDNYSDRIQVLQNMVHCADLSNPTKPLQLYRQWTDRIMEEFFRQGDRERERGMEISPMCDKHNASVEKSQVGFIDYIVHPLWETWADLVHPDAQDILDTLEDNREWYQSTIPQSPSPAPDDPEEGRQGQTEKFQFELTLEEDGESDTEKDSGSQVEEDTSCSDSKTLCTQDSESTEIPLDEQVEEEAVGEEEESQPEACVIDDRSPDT
Sequence of Dual 3',5'-cyclic-AMP and -GMP phosphodiesterase 11A (Homo sapiens) (Q9HCR9 whole entry, looked up): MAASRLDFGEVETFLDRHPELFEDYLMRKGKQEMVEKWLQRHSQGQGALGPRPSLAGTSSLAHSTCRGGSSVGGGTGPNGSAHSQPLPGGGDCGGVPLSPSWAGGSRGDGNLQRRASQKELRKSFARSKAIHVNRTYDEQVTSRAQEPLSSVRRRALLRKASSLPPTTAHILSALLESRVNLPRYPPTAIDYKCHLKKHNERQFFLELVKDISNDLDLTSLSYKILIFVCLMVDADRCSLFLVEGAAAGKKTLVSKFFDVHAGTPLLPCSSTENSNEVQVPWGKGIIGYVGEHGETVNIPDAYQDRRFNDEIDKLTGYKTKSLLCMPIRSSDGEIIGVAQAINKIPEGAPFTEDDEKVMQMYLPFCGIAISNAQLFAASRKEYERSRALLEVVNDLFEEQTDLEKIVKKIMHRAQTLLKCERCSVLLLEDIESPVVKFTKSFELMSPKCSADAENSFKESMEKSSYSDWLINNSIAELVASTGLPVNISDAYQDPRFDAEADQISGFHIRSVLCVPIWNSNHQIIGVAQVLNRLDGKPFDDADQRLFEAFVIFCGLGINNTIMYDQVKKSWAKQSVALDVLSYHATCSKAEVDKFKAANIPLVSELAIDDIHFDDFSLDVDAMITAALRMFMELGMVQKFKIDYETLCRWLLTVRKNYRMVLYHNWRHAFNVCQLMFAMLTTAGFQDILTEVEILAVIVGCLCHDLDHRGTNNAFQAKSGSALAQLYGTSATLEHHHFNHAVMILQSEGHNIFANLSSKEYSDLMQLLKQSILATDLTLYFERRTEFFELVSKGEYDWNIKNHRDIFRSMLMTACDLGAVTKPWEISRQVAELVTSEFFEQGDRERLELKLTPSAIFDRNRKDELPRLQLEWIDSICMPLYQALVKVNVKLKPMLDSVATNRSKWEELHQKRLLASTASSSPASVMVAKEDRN
Sequence of cGMP-inhibited 3',5'-cyclic phosphodiesterase 3A (Homo sapiens) (Q14432 whole entry): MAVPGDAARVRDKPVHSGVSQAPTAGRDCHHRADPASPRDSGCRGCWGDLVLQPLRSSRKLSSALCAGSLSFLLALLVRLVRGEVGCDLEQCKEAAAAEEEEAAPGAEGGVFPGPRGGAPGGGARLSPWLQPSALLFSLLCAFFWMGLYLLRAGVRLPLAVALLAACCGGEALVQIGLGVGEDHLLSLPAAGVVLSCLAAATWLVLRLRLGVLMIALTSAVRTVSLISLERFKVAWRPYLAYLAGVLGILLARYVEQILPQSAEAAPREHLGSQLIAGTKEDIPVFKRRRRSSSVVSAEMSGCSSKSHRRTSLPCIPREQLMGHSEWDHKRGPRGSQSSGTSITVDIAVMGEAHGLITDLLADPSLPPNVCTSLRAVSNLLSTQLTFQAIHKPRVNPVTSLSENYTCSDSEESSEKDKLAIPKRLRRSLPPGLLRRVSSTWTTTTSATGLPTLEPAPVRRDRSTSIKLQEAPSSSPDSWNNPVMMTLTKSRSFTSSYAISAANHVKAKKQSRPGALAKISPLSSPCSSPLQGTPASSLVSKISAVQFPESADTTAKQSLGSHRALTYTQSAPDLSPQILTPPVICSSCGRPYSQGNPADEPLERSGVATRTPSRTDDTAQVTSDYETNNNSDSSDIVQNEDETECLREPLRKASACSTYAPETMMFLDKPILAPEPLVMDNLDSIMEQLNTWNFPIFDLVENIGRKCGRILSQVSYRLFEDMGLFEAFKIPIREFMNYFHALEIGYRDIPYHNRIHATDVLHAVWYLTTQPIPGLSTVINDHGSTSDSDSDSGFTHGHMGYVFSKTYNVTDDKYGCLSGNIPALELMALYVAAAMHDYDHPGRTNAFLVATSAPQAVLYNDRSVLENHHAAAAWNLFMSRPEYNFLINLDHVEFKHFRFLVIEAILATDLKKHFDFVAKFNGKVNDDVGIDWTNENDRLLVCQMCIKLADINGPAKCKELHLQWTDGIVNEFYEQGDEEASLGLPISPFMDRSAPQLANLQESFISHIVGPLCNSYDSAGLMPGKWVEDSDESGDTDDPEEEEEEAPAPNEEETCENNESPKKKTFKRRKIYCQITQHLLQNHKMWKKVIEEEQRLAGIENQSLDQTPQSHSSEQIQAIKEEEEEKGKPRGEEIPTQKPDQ
Sequence of cGMP-dependent 3',5'-cyclic phosphodiesterase (Homo sapiens) (O00408 whole entry): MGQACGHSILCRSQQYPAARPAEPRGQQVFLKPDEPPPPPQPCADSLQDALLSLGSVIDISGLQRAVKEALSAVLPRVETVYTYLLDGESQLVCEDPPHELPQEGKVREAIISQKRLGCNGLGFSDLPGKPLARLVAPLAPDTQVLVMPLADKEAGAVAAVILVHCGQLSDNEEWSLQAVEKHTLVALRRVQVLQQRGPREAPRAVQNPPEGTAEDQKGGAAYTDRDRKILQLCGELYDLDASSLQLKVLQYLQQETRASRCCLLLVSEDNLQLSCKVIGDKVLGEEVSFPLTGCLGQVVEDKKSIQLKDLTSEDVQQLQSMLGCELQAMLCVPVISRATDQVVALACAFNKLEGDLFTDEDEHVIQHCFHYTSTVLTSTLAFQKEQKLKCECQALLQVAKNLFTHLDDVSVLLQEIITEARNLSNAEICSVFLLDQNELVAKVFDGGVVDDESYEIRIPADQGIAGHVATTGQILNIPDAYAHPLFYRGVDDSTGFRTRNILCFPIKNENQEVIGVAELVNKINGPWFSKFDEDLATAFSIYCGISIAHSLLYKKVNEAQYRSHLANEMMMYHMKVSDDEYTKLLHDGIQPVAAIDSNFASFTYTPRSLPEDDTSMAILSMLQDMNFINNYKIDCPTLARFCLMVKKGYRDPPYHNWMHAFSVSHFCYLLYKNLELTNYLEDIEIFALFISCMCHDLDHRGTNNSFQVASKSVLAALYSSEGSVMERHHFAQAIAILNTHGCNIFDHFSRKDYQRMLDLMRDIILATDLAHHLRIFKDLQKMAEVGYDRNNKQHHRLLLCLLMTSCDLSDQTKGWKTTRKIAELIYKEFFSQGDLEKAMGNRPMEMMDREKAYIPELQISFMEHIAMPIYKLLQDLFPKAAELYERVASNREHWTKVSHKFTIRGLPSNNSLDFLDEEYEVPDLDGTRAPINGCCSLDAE

Row | inhibition [1] | inhibition [2] | remaining at 1 h [3] | inhibition [4] | IC50 [5] | inhibition [6] | inhibition [7] | inhibition [8] | remaining at 1 h [9] | inhibition [10] | inhibition [11] | remaining at 1 h [12] | IC50 [13] | inhibition [14] | IC50 [15] | inhibition [16] | remaining at 1 h [17] | inhibition [18] | remaining at 1 h [19] | inhibition [20] | SMILES | also measured
1 | 28.3% | 16.7% | 13.7% | 43% | 0.3 nM | 98.3% | 6.4% | 0% | 46.2% | 3.7% | 10.8% | 62.5% | 0.8 nM | 8.3% | 1.2 nM | 24.9% | 48.1% | 9.6% | 32.3% | 0.9% | Cc1cnc2c(-c3ccc(Oc4ncccc4-c4ccncc4)cc3)cn(C)c2c1 | inhibition [21]: 0.1%
2 | 17.5% | 3.1% | 54.5% | 12.6% | 2.6 nM | 95.4% | 0% | 3.5% | 64% | 10.5% | 6.9% | 80.9% | 7.1 nM | 3% | 6.7 nM | 12.3% | 67.1% | 2.4% | 54.7% | 0% | Cn1cc(-c2ccc(Oc3ncccc3-c3ccncc3)cc2)c2ncc(Cl)cc21 | inhibition [21]: 8.5%
3 |  |  |  |  |  |  |  |  |  |  |  |  |  |  |  |  |  |  |  |  | Cc1nc2n(c(=O)c1CCN1CCC(c3noc4cc(F)ccc34)CC1)CCCC2 [RISPERIDONE] | Activity [22]: 67%
4 | 39.9% | 23.2% | 39.8% | 69.6% | 1.3 nM | 98% | 7.4% | 0.9% | 38.4% | 5% | 18% | 59.6% | 5.8 nM | 29% | 4.1 nM | 16.6% | 40.2% | 2.2% | 39.7% | 0.1% | Cn1cc(-c2ccc(Oc3ncccc3-c3ccncc3)cc2)c2ncccc21 | inhibition [21]: 3%
5 |  |  |  |  |  |  |  |  |  |  |  |  |  |  |  |  |  |  |  |  | Cn1cc(-c2ccncc2)c(-c2ccc(OCc3ccc4ccccc4n3)cc2)n1 [MARDEPODECT] | Activity [23]: 80%; Activity [24]: 32%; Activity [25]: 18%; Activity [26]: 96%
